Data from PubChem BioAssay AID2060899 (Molecular Pharmacology Branch, DTP, NCI, 2025).

Test system: 565726-208-R1-J5-PDC complex spheroids, growth inhibition
Assay: Anticancer human tumor 565726-208-R1-J5-PDC patient-derived pancreatic adenocarcinoma cell line growth inhibition [RAS]
Conditions: for IC50: curve of first compound; for viability, T/C: stronger effect = lower value
Excerpt: RAS pathway inhibitors in Combinations in Complex Spheroids
A high-throughput screen of multi-cell type tumor spheroids was designed to identify active combinations of RAS pathway inhibitors and targeted small molecules. Complex spheroids include a stromal component modeled by human endothelial cells (HUVEC) and fibroblasts modeled by human mesenchymal stem cells (MSCs). The concentration ranges selected for each drug and investigational agent were based upon clinically achievable concentrations if the clinical Cmax of the agent was known.
Compounds. The drugs and investigational agents: abemaciclib (NSC768073), cobimetinib (NSC768068), divarasib (GDC6063, NSC841802), docetaxel (NSC628503), GDC-1971 (RLY-1971, NSC841576), gemcitabine (NSC613327), inavolisib (NSC800729), ipatasertib (NSC767898), KB-0742 (NSC834161), MRTX-1133 (NSC836407), osimertinib (NSC779217), RMC-4630 (NSC839698), RMC-6236 (NSC851965), RMC-6291 (NSC852671), Ro-3306 (NSC812927), sapanisertib (NSC764658), SN-38 (NSC673596), staurosporine (NSC755774), SY5609 (NSC837396), and tovorafenib (DAY101, NSC766906), were obtained from the National Cancer Institute (NCI) Developmental Therapeutics Program Chemical Repository. The FDA-approved anticancer drug set is available from the NCI Developmental Therapeutics Program. […] The stock solutions were prepared in dimethyl sulfoxide (DMSO, Sigma-Aldrich, St. Louis, MO, cat. D2650) at 800-fold the tested concentration and stored at -70 degrees C prior to their use. All drugs and investigational agents were tested over a range starting from a high concentration at or near the clinical Cmax and decreasing in half-log increments. If the clinical Cmax for an agent had not been determined, the highest concentration tested was 10 microM.
Cell Culture. All cells were maintained in an incubator at 37 degrees C and 5% CO2 with 95% humidity. The PDC lines were cultured according to standard operating procedures established by the NCI PDMR. All PDCs were thawed and cultured in Matrigel-coated flasks prepared with a working solution of 1X Ham's F-12 nutrient mix, without supplementation (Invitrogen, Waltham, MA, cat. 11765054), 100 U/mL penicillin-streptomycin (Invitrogen, cat. 15140122), and 2.5% Matrigel (Corning Inc., Corning, NY, cat. 354248) for the first three passages. The 362531-283-R-J2-PDC and 782815-120-R-J1-PDC lines were cultured in 6C/Colon 1B media, which includes advanced DMEM/F-12 (Thermo Fisher Scientific, cat. 12634028), 10 mM HEPES (Thermo Fisher Scientific, cat. 15630080), 1X GlutaMAX supplement (Thermo Fisher Scientific, cat. 35050061), 0.1 mg/mL primocin (InvivoGen, San Diego, CA, cat. ant-pm-2), 10% defined fetal bovine serum, heat inactivated (HyClone Laboratories Inc., Logan, UT, cat. SH30070.03HI), 50% L-WRN conditioned media (ATCC, cat. CRL-3276), 1.25 mM N-Acetyl-L-cysteine (Sigma-Aldrich, cat. A9165), 10 mM nicotinamide (Sigma-Aldrich, cat. N0636), 1X B-27 supplement (Thermo Fisher Scientific, cat. 17504044), 1X N-2 supplement (Thermo Fisher Scientific, cat. 17502048), 50 ng/mL human EGF (Thermo Fisher Scientific, cat. PHG0311), and 10 microM Y-27632 dihydrochloride (Tocris Bioscience, cat. 1254). The K12877-001-R-J1-PDC line was cultured in 6I media, which includes all 6C/Colon 1B media plus 10 ng/mL human FGF-10 (PeproTech, cat. 100-26), 1 ng/mL human FGF-2 (PeproTech, cat. 100-18B), 1 µM prostaglandin E2 (Tocris Bioscience, cat. 2296), […] hydrocortisone (Sigma-Aldrich, cat. H4001), and […] bovine insulin (Sigma-Aldrich, cat. I6634). The K86415-001-R-J1-PDC line was cultured in 6D media, which includes all 6C/Colon 1B media components minus the L-WRN conditioned media. The 485176-168-R4-J1-PDC was cultured in PANC media, which includes all 6C/Colon 1B media plus 100 ng/mL human FGF-10 (PeproTech, cat. 100-26), 500 nM SB-431542 (Selleckchem, cat. S1067), and 10 nM gastrin (Tocris Bioscience, cat. 3006). […]
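Note: spheroids exposed to compounds for seven days before readout.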
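Throughout, for viability, T/C: 100% = DMSO vehicle control viability.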

CC(=O)OC12COC1CC(O)C1(C)C(=O)C(O)C3=C(C)C(OC(=O)C(O)C(NC(=O)OC(C)(C)C)c4ccccc4)CC(O)(C(OC(=O)c4ccccc4)C21)C3(C)C (centres undefined) + CCn1c(-c2cc(N3CCN(C)CC3)cnc2C(C)OC)c2c3cc(ccc31)-c1csc(n1)CC(NC(=O)C1CC1C)C(=O)N1CCCC(N1)C(=O)OCC(C)(C)C2
IC50 (second compound 0.000949 µM): < 0.0316 µM | IC50 (second compound 0.003 µM): < 0.0316 µM | IC50 (second compound 0.00949 µM): < 0.0316 µM | IC50 (second compound 0.03 µM): < 0.0316 µM | IC50 (second compound 0.0949 µM): < 0.0316 µM | IC50 (second compound 0.3 µM): < 0.0316 µM | viability, T/C (second compound 0.000949 µM, first compound 0.0316 µM): 20.3% | viability, T/C (second compound 0.000949 µM, first compound 0.1 µM): 17% | viability, T/C (second compound 0.000949 µM, first compound 0.316 µM): 19.2% | viability, T/C (second compound 0.000949 µM, first compound 1 µM): 17.7% | viability, T/C (second compound 0.000949 µM, first compound 3.16 µM): 20.2% | viability, T/C (second compound 0.000949 µM, first compound 10 µM): 20.8% | viability, T/C (second compound 0.003 µM, first compound 0.0316 µM): 20.4% | viability, T/C (second compound 0.003 µM, first compound 0.1 µM): 17.7% | viability, T/C (second compound 0.003 µM, first compound 0.316 µM): 17.2% | viability, T/C (second compound 0.003 µM, first compound 1 µM): 15.5% | viability, T/C (second compound 0.003 µM, first compound 3.16 µM): 18.7% | viability, T/C (second compound 0.003 µM, first compound 10 µM): 18.4% | viability, T/C (second compound 0.00949 µM, first compound 0.0316 µM): 17.9% | viability, T/C (second compound 0.00949 µM, first compound 0.1 µM): 17.1% | viability, T/C (second compound 0.00949 µM, first compound 0.316 µM): 14.7% | viability, T/C (second compound 0.00949 µM, first compound 1 µM): 16% | viability, T/C (second compound 0.00949 µM, first compound 3.16 µM): 17.6% | viability, T/C (second compound 0.00949 µM, first compound 10 µM): 15.2% | viability, T/C (second compound 0.03 µM, first compound 0.0316 µM): 14.5% | viability, T/C (second compound 0.03 µM, first compound 0.1 µM): 13.7% | viability, T/C (second compound 0.03 µM, first compound 0.316 µM): 11.5% | viability, T/C (second compound 0.03 µM, first compound 1 µM): 14.5% | viability, T/C (second compound 0.03 µM, first compound 3.16 µM): 13.7% | viability, T/C (second compound 0.03 µM, first compound 10 µM): 13.6% | viability, T/C (second compound 0.0949 µM, first compound 0.0316 µM): 11.7% | viability, T/C (second compound 0.0949 µM, first compound 0.1 µM): 13% | viability, T/C (second compound 0.0949 µM, first compound 0.316 µM): 14.6% | viability, T/C (second compound 0.0949 µM, first compound 1 µM): 12.5% | viability, T/C (second compound 0.0949 µM, first compound 3.16 µM): 14.1% | viability, T/C (second compound 0.0949 µM, first compound 10 µM): 11.3% | viability, T/C (second compound 0.3 µM, first compound 0.0316 µM): 10.4% | viability, T/C (second compound 0.3 µM, first compound 0.1 µM): 10.5% | viability, T/C (second compound 0.3 µM, first compound 0.316 µM): 11.4% | viability, T/C (second compound 0.3 µM, first compound 1 µM): 11.3% | viability, T/C (second compound 0.3 µM, first compound 3.16 µM): 12% | viability, T/C (second compound 0.3 µM, first compound 10 µM): 10.4%

CC1(O)CCCC1n1c(=O)c(C(F)F)cc2cnc(NC3CCN(S(C)(=O)=O)CC3)nc21 (centres undefined) + C=CC(=O)N1CCN(c2nc(OCC3CCCN3C)nc3c(F)c(-c4nc(N)cc(C)c4C(F)(F)F)c(Cl)cc23)C(C)C1
IC50 (second compound 0.00316 µM): 4.25 µM | IC50 (second compound 0.01 µM): 3.86 µM | IC50 (second compound 0.0316 µM): 1.88 µM | IC50 (second compound 0.1 µM): 3.18 µM | IC50 (second compound 0.316 µM): 3.14 µM | IC50 (second compound 1 µM): 3.09 µM | viability, T/C (second compound 0.00316 µM, first compound 0.0316 µM): 84.6% | viability, T/C (second compound 0.00316 µM, first compound 0.1 µM): 101% | viability, T/C (second compound 0.00316 µM, first compound 0.316 µM): 69.9% | viability, T/C (second compound 0.00316 µM, first compound 1 µM): 77.8% | viability, T/C (second compound 0.00316 µM, first compound 3.16 µM): 67.8% | viability, T/C (second compound 0.00316 µM, first compound 10 µM): 7.33% | viability, T/C (second compound 0.01 µM, first compound 0.0316 µM): 111% | viability, T/C (second compound 0.01 µM, first compound 0.1 µM): 116% | viability, T/C (second compound 0.01 µM, first compound 0.316 µM): 71.8% | viability, T/C (second compound 0.01 µM, first compound 1 µM): 78.2% | viability, T/C (second compound 0.01 µM, first compound 3.16 µM): 73.2% | viability, T/C (second compound 0.01 µM, first compound 10 µM): 8.22% | viability, T/C (second compound 0.0316 µM, first compound 0.0316 µM): 122% | viability, T/C (second compound 0.0316 µM, first compound 0.1 µM): 119% | viability, T/C (second compound 0.0316 µM, first compound 0.316 µM): 61.8% | viability, T/C (second compound 0.0316 µM, first compound 1 µM): 68.8% | viability, T/C (second compound 0.0316 µM, first compound 3.16 µM): 59.5% | viability, T/C (second compound 0.0316 µM, first compound 10 µM): 4.81% | viability, T/C (second compound 0.1 µM, first compound 0.0316 µM): 117% | viability, T/C (second compound 0.1 µM, first compound 0.1 µM): 116% | viability, T/C (second compound 0.1 µM, first compound 0.316 µM): 63.8% | viability, T/C (second compound 0.1 µM, first compound 1 µM): 73.9% | viability, T/C (second compound 0.1 µM, first compound 3.16 µM): 71.2% | viability, T/C (second compound 0.1 µM, first compound 10 µM): 8.5% | viability, T/C (second compound 0.316 µM, first compound 0.0316 µM): 111% | viability, T/C (second compound 0.316 µM, first compound 0.1 µM): 116% | viability, T/C (second compound 0.316 µM, first compound 0.316 µM): 63% | viability, T/C (second compound 0.316 µM, first compound 1 µM): 77.1% | viability, T/C (second compound 0.316 µM, first compound 3.16 µM): 64.3% | viability, T/C (second compound 0.316 µM, first compound 10 µM): 7.59% | viability, T/C (second compound 1 µM, first compound 0.0316 µM): 122% | viability, T/C (second compound 1 µM, first compound 0.1 µM): 112% | viability, T/C (second compound 1 µM, first compound 0.316 µM): 73.5% | viability, T/C (second compound 1 µM, first compound 1 µM): 89% | viability, T/C (second compound 1 µM, first compound 3.16 µM): 53% | viability, T/C (second compound 1 µM, first compound 10 µM): 6.97%
